Measurements reported in patent EP1526135A1, “Azabenzodiazepines as pde4 inhibitors” (Warner-Lambert Company LLC, priority 2003, dated 2005).

Test system: type 4 phosphodiesterases
Test: Inhibition of type 4 phosphodiesterase enzymatic activity (cytosolic preparation from U937 cells)
Type: biochemical
Details: PDE4 from cytosolic preparation of human cell line U937; inhibitor concentration range 0.1 to 100 µM
Method: The capacity of the compounds of formula (I) of the invention to inhibit cyclic nucleotide phosphodiesterases is evaluated by measuring their IC50 (concentration needed to inhibit 50% of the enzymatic activity). In the case of PDE4 enzymes, this value is compared to the IC50 value for rolipram, a reference inhibitor for PDE4 enzymes.
The type 4 phosphodiesterases are obtained from a cytosolic preparation extracted from a cell line of human origin, U937, according to the method adapted from T. J. Torphy et al., 1992, J. Pharm. Exp. Ther. 263: 1195-1205.
The measurement of the enzymatic activity for the various types of PDE, and in particular the PDE4 enzymes, is carried out according to a method adapted from W. J. Thomson et al. 1979, Advances in Cyclic Nucleotide Research, Vol. 10: 69-92, ed. G. Brooker et al. Raven Press, NY.
For the determination of the IC50 value, the enzymatic activity is measured in the presence of the inhibitor in a concentration range from 0.1 to 100 µM.

Row | Compound | IC50 [µM]
1 | COc1cc2c3c(n1)C(c1ccccc1)=NC(NC(=O)c1cccnc1)C(=O)N3CC2 (stereo not drawn) [first enantiomer (Rt=5.79 min) of compound of Example 1, N-(4-Methoxy-9-oxo-6-phenyl-1,2,8,9-tetrahydro-5,7,9a-triaza-benzo[cd]azulen-8-yl)-nicotinamide] | 4.3
2 | COc1cc2c3c(n1)C(c1ccccc1)=NC(NC(=O)c1cccnc1)C(=O)N3CC2 (stereo not drawn) [second enantiomer (Rt = 8.15 min) of compound of Example 1, N-(4-Methoxy-9-oxo-6-phenyl-1,2,8,9-tetrahydro-5,7,9a-triaza-benzo[cd]azulen-8-yl)-nicotinamide] | 73
3 | COc1cc2c3c(n1)C(c1ccccc1)=NC(NC(=O)c1cccnc1)C(=O)N3CC2 (racemic) [racemate of compound of Example 1, N-(4-Methoxy-9-oxo-6-phenyl-1,2,8,9-tetrahydro-5,7,9a-triaza-benzo[cd]azulen-8-yl)-nicotinamide] | 6.1
